The target in assay [1] is T1, NMDA Receptor (NR1/NR2B Receptor) (Rattus norvegicus, UniProt P35439+Q00960).
T1 construct: this was used as a membrane specimen in an experiment; from tissue; host or cells: rat cerebral cortex membranes
Kind of assay: Experiment of binding to NMDA receptor (NR1/NR2B receptor), [3H]-Ifenprodil competition, rat cerebral cortex membrane. The settings on record: [3H]-Ifenprodil 5 nM, GBR-12909 3 μM, ice temperature 120 minutes. The procedure:
Using Ifenprodil which is a NR1/NR2B subtype receptor-specific antagonist as a ligand, an experiment of receptor competition with a test compound was performed.
A male Slc:Wistar rat was used as an animal, a decapitated brain was isolated, and cerebral cortex was fractionated. The cerebral cortex was homogenized with a 20-fold amount of an ice-cooled 50 mM Tris/HCl buffer (pH 7.4), and centrifuged at 4° C. and 27,500×g for 10 minutes. The resulting precipitate was suspended in the same buffer, and the suspension was centrifuged again. This procedure was repeated three times, and the resulting precipitate was suspended in a buffer, and stored at −80° C. Immediately before an experiment, the frozen suspension was thawed at room temperature, and centrifuged at 4° C. and 27,500×g for 10 minutes, and the resulting precipitate was suspended in a buffer. The suspension was further diluted 10-fold with a buffer, and this was used as a membrane specimen in an experiment.
In a binding experiment, to 470 μl of the membrane specimen were added 10 μl of different concentrations of a test compound, 10 μl of a labeled ligand [3H]-Ifenprodil and 10 μl of GBR-12909, and this was incubated at an ice temperature for 120 minutes. A concentration of [3H]-Ifenprodil of the labeled ligand was finally 5 nM, and a concentration of GBR-12909 was finally 3 μM. For measuring a total binding amount, DMSO as a solvent was used and, for measuring a non-specific binding amount, 100 μM of Ifenprodil was used. In addition, GBR-12909 was added in order to block binding of [3H]-Ifenprodil to a non-polyamine-sensitive site. After incubation, a bound body and a free body were separated using a Whatman GF/C filter (manufactured by Whatman), and the filter was washed with 2.5 ml of an ice-cooled buffer four times. The filter was immersed in a liquid scintillation (Clear-sol I, manufactured by Nacalai tesque) in a vial bottle, and radioactivity (dpm) was measured with a liquid scintillation counter. From a measured value, a binding inhibition rate (%) was obtained by the following equation, and a dose at which binding is inhibited 50% (IC50) was calculated. A formula of GBR-12909 (Vanoxerine) is shown below.
Binding inhibition rate(%)=100−[(binding amount in presence of test compound−non-specific amount)/(total binding amount−non-specific binding amount)]×100

The target of assay [2] is T2, mouse NMDA receptor (NR1 subunit and NR2B subunit co-expressed in HEK293 cells) (Mus musculus, UniProt P35438+Q01097).
T2 construct: expressed in transfected cells; host or cells: HEK293 cells, transient, pcDNA 3.1 plasmids
T2 sequence (Q01097 27-1482, other chains not shown): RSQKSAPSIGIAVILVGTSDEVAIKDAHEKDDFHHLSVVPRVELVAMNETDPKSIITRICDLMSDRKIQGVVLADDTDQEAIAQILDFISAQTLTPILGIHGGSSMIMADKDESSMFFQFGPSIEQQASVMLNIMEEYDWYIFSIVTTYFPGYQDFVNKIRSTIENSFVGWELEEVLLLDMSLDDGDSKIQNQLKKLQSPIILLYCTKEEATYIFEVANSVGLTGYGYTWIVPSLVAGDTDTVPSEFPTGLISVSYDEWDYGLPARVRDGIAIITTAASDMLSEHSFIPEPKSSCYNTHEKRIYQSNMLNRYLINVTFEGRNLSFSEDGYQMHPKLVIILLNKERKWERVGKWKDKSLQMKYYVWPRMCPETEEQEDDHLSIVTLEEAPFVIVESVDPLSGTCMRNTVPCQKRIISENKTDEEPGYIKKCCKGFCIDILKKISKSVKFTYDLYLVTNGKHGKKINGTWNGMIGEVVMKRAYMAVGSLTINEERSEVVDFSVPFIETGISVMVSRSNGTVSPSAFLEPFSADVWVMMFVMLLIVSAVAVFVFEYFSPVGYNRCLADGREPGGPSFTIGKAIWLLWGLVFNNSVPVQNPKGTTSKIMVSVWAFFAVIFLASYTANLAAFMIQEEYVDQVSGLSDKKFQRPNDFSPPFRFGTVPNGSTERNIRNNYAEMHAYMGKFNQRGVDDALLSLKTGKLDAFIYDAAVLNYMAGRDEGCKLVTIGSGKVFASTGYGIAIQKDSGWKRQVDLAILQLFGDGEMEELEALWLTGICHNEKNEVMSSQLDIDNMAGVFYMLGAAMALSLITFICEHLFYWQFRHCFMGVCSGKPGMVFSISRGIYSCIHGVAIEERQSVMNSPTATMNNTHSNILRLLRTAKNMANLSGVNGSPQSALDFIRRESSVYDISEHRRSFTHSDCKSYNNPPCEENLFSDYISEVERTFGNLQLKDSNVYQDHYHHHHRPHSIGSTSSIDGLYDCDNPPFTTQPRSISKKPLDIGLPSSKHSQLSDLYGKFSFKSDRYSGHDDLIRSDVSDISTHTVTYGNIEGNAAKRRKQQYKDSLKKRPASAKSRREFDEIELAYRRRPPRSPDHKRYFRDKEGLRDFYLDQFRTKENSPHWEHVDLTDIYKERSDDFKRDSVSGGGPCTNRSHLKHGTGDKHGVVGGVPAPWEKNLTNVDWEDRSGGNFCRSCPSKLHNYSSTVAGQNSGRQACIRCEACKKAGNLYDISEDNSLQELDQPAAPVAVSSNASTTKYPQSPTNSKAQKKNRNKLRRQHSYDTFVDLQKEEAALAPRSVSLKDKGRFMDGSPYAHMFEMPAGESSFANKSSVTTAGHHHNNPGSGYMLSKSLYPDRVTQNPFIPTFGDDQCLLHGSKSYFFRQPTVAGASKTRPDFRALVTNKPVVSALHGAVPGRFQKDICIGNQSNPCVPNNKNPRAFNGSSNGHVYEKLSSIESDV
Kind of assay: Expression of NMDA receptor and measurement of Ca ion flow in amount (HEK293 cells, Fluo-3/AM, FDSS3000). The format is cell-based. The settings on record: Ca ion flow in induced with glutamic acid 20 μM/glycine 2 μM, read-out: Ca2+ 1050. The procedure: Test Example 2 Expression of NMDA receptor and measurement of Ca ion flow in amount
A complementary DNA (cDNA) of a mouse NMDA receptor subunit was transiently introduced into HEK293 cells and, after one day from introduction, change in a glutamic acid/glycine-induced intracellular Ca amount was measured using a Ca ion reactive fluorescent dye.
HEK293 cells were cultured and passaged using a modified Dulbecco's Eagle medium (DMEM, low glucose).
20,000/well of HEK293 cells were seeded on a 96-well plate, a NR1 subunit and a NR2B subunit of a NMDA receptor incorporated into pcDNA 3.1 plasmid were transiently introduced into cells, and co-expression of subunits was performed. An introduction amount of a DNA was such that the NR1 subunit was 0.025 μg, and the NR2B subunit was 0.075 μg per well. For cells after introduction, cell death was inhibited using 50 μM of a NMDA receptor antagonist MK-801.
For adjusting a test compound and washing cells, Krebs Ringer Hepes buffer (KRH, Ca: 5 mM) was used.
One day after introduction, the NMDA receptor antagonist MK-801 was washed off using the KRH buffer, and a Ca ion indicative fluorescent dye Fluo-3/AM was made to be taken into cells. Flow in of a Ca ion was induced with glutamic acid 20 μM/glycine 2 μM. Change in a fluorescence amount due to intracellular Ca ion flow in was measured at excitation 480 nm using a fluorescence imaging system FDSS3000.
From a measured value of the test compound, a Ca ion flow in inhibitory rate (%) was obtained by the following equation, and a dose at which flow in is 50% inhibited (IC50) was calculated.
Ca ion flow in inhibitory rate(%)=100−[(fluorescence amount in presence of test compound−background fluorescence amount)/(total fluorescence amount[…]background fluorescence amount)]×100

T1 sequence (Q00960 27-1482, other chains not shown): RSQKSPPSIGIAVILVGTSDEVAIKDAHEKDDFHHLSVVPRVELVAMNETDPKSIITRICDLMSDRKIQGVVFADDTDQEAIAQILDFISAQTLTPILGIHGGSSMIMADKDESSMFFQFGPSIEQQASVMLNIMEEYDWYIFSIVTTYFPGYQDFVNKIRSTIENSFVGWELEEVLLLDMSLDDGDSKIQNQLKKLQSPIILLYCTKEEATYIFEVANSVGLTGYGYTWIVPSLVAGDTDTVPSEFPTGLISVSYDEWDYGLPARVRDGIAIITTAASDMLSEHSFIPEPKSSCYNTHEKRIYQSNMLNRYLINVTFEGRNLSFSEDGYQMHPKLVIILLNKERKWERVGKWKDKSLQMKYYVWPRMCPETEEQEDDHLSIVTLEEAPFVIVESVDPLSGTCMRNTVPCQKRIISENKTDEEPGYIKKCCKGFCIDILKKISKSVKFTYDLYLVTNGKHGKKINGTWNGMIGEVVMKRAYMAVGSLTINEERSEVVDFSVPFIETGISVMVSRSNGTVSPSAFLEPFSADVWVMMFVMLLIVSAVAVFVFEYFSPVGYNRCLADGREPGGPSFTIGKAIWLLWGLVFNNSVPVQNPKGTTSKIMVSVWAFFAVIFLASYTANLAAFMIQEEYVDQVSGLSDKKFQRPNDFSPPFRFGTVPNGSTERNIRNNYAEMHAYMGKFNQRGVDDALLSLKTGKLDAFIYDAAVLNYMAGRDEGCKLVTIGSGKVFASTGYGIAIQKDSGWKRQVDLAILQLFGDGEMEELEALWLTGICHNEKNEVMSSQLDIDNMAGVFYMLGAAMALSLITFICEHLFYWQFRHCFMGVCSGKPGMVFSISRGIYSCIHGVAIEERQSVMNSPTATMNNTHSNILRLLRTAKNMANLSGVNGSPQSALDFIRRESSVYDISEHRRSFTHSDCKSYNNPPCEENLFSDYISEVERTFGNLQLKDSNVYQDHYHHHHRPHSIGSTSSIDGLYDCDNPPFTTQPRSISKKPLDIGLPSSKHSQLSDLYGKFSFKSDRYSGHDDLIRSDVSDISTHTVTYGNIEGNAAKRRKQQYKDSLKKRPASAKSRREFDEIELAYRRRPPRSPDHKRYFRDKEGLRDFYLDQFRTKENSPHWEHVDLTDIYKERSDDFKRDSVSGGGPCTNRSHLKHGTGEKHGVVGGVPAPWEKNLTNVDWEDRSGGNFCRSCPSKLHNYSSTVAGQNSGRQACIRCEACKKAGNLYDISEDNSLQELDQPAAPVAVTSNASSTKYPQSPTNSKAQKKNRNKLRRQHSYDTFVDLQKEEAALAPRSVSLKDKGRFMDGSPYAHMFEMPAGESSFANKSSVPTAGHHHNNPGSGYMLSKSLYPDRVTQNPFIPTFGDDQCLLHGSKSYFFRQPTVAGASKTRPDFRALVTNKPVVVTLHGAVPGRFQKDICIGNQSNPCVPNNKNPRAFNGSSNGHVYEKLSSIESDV

On to `Cc1cc(N2CCN(C(=O)C(=O)Nc3ccc4[nH]c(=O)oc4c3)CC2)ccc1Cl` [Compound I-37], for which the IC50 was 0.029 µM in assay [1] and 9 nM in assay [2].

For `Cc1ccc(N2CCN(C(=O)C(=O)Nc3ccc4[nH]c(=O)oc4c3)[C@H](C)C2)cc1` [Compound I-22], the IC50 in assay [1] is 0.085 µM; in assay [2], 22 nM.

With `C[C@@H]1CN(c2ccc(Cl)cc2)CCN1CC(=O)Nc1ccc2[nH]c(=O)oc2c1` [Compound I-53], the figures for the IC50 in assay [1] and in assay [2] were 0.134 µM and 33 nM, respectively.

On to `Cc1ccc(N2CCN(C(=O)C(=O)Nc3ccc4[nH]c(=O)oc4c3)[C@H](C)C2)cc1F` [Compound I-27], for which the IC50 in assay [1] was determined as 0.035 µM; in assay [2], 2 nM.

As to `Cc1cc(N2CCN(C(=O)C(=O)Nc3ccc4[nH]c(=O)oc4c3)CC2)ccc1F` [Compound I-46], the IC50 in assay [2] amounted to 83 nM.

`O=C(Nc1ccc2[nH]c(=O)oc2c1)C(=O)N1CCN(c2cc(F)cc(F)c2)CC1` [Compound I-12]: the IC50 in assay [2] amounted to 108 nM.

Consider `COc1c(F)cc(N2CCN(C(=O)CNc3ccc4[nH]c(=O)oc4c3)C[C@H]2C)cc1F` [Compound I-43], for which the IC50 in assay [1] turned out to be 0.065 µM; in assay [2] it was 21 nM.

For `COCc1ccc(N2CCN(C(=O)C(=O)Nc3ccc4[nH]c(=O)oc4c3)[C@H](C)C2)cc1F` [Compound I-34], the IC50 in assay [1] worked out at 0.099 µM; in assay [2], 32 nM.

For the compound `CC[C@@H]1CN(C(=O)C(=O)Nc2ccc3[nH]c(=O)oc3c2)CCN1c1ccc(Cl)cc1` [Compound I-51], the values for the IC50 in assay [1] and in assay [2] were 0.09 µM and 5 nM, respectively.

As for `C[C@@H]1CN(CC(=O)Nc2ccc3[nH]c(=O)oc3c2)CCN1c1ccc(Cl)c(F)c1` [Compound I-55], the IC50 in assay [1] is 0.033 µM; in assay [2] it was 4 nM.

Regarding `COc1c(F)cc(N2CCN(CC(=O)Nc3ccc4[nH]c(=O)oc4c3)C[C@H]2C)cc1F` [Compound I-57], the IC50 was 0.056 µM in assay [1] and 4 nM in assay [2].

On to `COCc1ccc(N2CCN(C(=O)C(=O)Nc3ccc4[nH]c(=O)oc4c3)[C@H](C)C2)cc1` [Compound I-32], for which the IC50 in assay [2] is 105 nM.

`C[C@@H]1CN(c2cc(F)cc(F)c2)CCN1C(=O)C(=O)Nc1ccc2[nH]c(=O)oc2c1` [Compound I-14]: the IC50 in assay [2] came to 48 nM.

With `Cc1ccc(N2CCN(C(=O)C(=O)Nc3ccc4[nH]c(=O)oc4c3)CC2)cc1` [Compound I-18], the values for the IC50 in assay [1] and in assay [2] were 0.107 µM and 48 nM, respectively.

With `Cc1cc(N2CCN(C(=O)C(=O)Nc3ccc4[nH]c(=O)oc4c3)C[C@H]2C)ccc1F` [Compound I-49], the IC50 in assay [2] stood at 19 nM.

For `Cc1ccc(N2CCN(C(=O)C(=O)Nc3ccc4[nH]c(=O)oc4c3)CC2)cc1F` [Compound I-26], the IC50 in assay [1] came out at 0.014 µM; in assay [2], 7 nM.

As to `C[C@@H]1CN(C(=O)CNc2ccc3[nH]c(=O)oc3c2)CCN1c1ccc(Cl)cc1` [Compound I-16], the results for the IC50 in assay [1] and in assay [2] were 0.072 µM and 12 nM, respectively.

As to `COCc1ccc(N2CCN(C(=O)C(=O)Nc3ccc4[nH]c(=O)oc4c3)C[C@H]2C)cc1` [Compound I-20], the IC50 in assay [2] stood at 41 nM.

With `COCc1ccc(N2CCN(C(=O)C(=O)Nc3ccc4[nH]c(=O)oc4c3)CC2)cc1F` [Compound I-33], the IC50 turned out to be 0.059 µM in assay [1] and 26 nM in assay [2].

On to `C[C@@H]1CN(C(=O)CNc2ccc3[nH]c(=O)oc3c2)CCN1c1ccc(OC(F)(F)F)cc1` [Compound I-30], for which, in assay [2], the IC50 was found to be 31 nM.

For the compound `CC[C@@H]1CN(c2ccc(Cl)cc2)CCN1C(=O)C(=O)Nc1ccc2[nH]c(=O)oc2c1` [Compound I-52], the IC50 in assay [1] turned out to be 0.081 µM; in assay [2], 8 nM.

Turning to `CO/N=C/c1ccc(N2CCN(C(=O)C(=O)Nc3ccc4[nH]c(=O)oc4c3)[C@H](C)C2)cc1` [Compound I-31], in assay [2], the IC50 is 106 nM.

As for `COc1c(F)cc(N2CCN(CC(=O)Nc3ccc4[nH]c(=O)oc4c3)CC2)cc1F` [Compound I-56], the IC50 in assay [1] was 0.044 µM; in assay [2], 12 nM.

As to `C[C@@H]1CN(c2ccc(OCC(F)(F)F)cc2)CCN1C(=O)C(=O)Nc1ccc2[nH]c(=O)oc2c1` [Compound I-24], the values for the IC50 in assay [1] and in assay [2] were 0.105 µM and 19 nM, respectively.

With `COc1c(F)cc(N2CCN(C(=O)CNc3ccc4[nH]c(=O)oc4c3)[C@H](C)C2)cc1F` [Compound I-9], the figures for the IC50 in assay [1] and in assay [2] were 0.031 µM and 7 nM, respectively.

Regarding `C[C@@H]1CN(C(=O)C(=O)Nc2cnc3[nH]c(=O)oc3c2)CCN1c1ccc(OC(F)(F)F)cc1` [Compound I-25], in assay [2], the IC50 stood at 9 nM.

Take `C[C@@H]1CN(CC(=O)Nc2ccc3[nH]c(=O)oc3c2)CCN1c1ccc(Cl)cc1` [Compound I-59]: the IC50 in assay [1] worked out at 0.042 µM; in assay [2] it was 6 nM.

Consider `C[C@@H]1CN(C(=O)C(=O)Nc2ccc3[nH]c(=O)oc3c2)CCN1c1cc(F)cc(F)c1` [Compound I-13], for which the results for the IC50 in assay [1] and in assay [2] were 0.114 µM and 14 nM, respectively.

For `C[C@@H]1CN(C(=O)CNc2ccc3[nH]c(=O)oc3c2)CCN1c1ccc(Cl)c(F)c1` [Compound I-17], the IC50 in assay [1] turned out to be 0.024 µM; in assay [2], 3 nM.

As for `C[C@@H]1CN(C(=O)C(=O)Nc2ccc3[nH]c(=O)oc3c2)CCN1c1ccc(OCC(F)(F)F)cc1` [Compound I-23], the IC50 in assay [2] was 22 nM.

For the compound `C[C@@H]1CN(c2ccc(F)c(Cl)c2)CCN1CC(=O)Nc1ccc2[nH]c(=O)oc2c1` [Compound I-54], the IC50 in assay [2] is 52 nM.

On to `O=C(NCCN1CCN(c2ccc(Cl)cc2)CC1)c1ccc2[nH]c(=O)oc2c1` [Compound I-65], for which the figures for the IC50 in assay [1] and in assay [2] were 0.026 µM and 10 nM, respectively.

Take `Cc1cc(N2CCN(CC(=O)Nc3ccc4[nH]c(=O)oc4c3)C[C@H]2C)ccc1Cl` [Compound I-60]: the IC50 in assay [1] is 0.08 µM; in assay [2], 10 nM.

For `Cc1ccc(N2CCN(C(=O)C(=O)Nc3ccc4[nH]c(=O)oc4c3)C[C@H]2C)cc1F` [Compound I-28], the values for the IC50 in assay [1] and in assay [2] were 0.068 µM and 3 nM, respectively.

As for `Cc1cc(N2CCN(C(=O)C(=O)Nc3ccc4[nH]c(=O)oc4c3)C[C@H]2C)ccc1Cl` [Compound I-41], the IC50 in assay [1] amounted to 0.067 µM; in assay [2], 5 nM.

`Cc1cc(N2CCN(C(=O)C(=O)Nc3ccc4[nH]c(=O)oc4c3)[C@H](C)C2)ccc1F` [Compound I-45]: in assay [2], the IC50 was 57 nM.

For `Cc1ccc(N2CCN(C(=O)C(=O)Nc3ccc4[nH]c(=O)oc4c3)C[C@H]2C)cc1` [Compound I-29], the IC50 in assay [1] was found to be 0.129 µM; in assay [2], 9 nM.

Regarding `C[C@@H]1CN(C(=O)C(=O)Nc2ccc3[nH]c(=O)oc3c2)CCN1c1ccc(C(F)(F)F)cc1` [Compound I-50], the IC50 in assay [1] came out at 0.064 µM; in assay [2] it was 5 nM.

In the case of `Cc1ccc(N2CCN(C(=O)C(=O)Nc3ccc4[nH]c(=O)oc4c3)CC2)cc1Cl` [Compound I-35], the IC50 was determined as 0.02 µM in assay [1] and 9 nM in assay [2].

For the compound `O=C(Nc1ccc2[nH]c(=O)oc2c1)C(=O)N1CCN(c2ccc(OCC(F)(F)F)cc2)CC1` [Compound I-21], the IC50 in assay [2] came to 47 nM.

In turn, `C[C@@H]1CN(c2ccc(OC(F)(F)F)cc2)CCN1C(=O)CNc1ccc2[nH]c(=O)oc2c1` [Compound I-36] showed an IC50 in assay [1] of 0.071 µM.

The values are drawn from US20110251212A1, “PIPERAZINE DERIVATIVES” (SHIONOGI & CO., LTD., priority 2007, published 2011).
